Experimental data reported in US6737383B1, “Herbicidal oxadiazolidines” (priority 1999, dated 2004).

Experiments:
soybean = experiment: Test B pre/postemergence soybean; assay type: in vivo, Glycine max
Procedure, shortened: (§1)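 Herbicidal effect was estimated by eye on a ten-point control scale after plants spent twelve to sixteen days in a greenhouse following soil or foliar treatment. Foliar sprays targeted plants at one to four leaves; all doses were formulated in a non-phytotoxic solvent with surfactant.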

giant foxtail = experiment: Test B pre/postemergence giant foxtail; assay type: in vivo, Setaria faberii
Procedure, shortened: as §1

wheat = experiment: Test B pre/postemergence wheat; assay type: in vivo, Triticum aestivum; conditions: for Plant response rating, Wheat: Rate 250 g/ha
Procedure, shortened: as §1

wild oat = experiment: Test B pre/postemergence wild oat; assay type: in vivo, Avena fatua; conditions: for Plant response rating, Wild oats: Rate 250 g/ha
Procedure, shortened: as §1

blackgrass = experiment: Test B pre/postemergence blackgrass; assay type: in vivo, Alopecurus myosuroides
Procedure, shortened: as §1

morningglory = experiment: Test B pre/postemergence morningglory; assay type: in vivo, Ipomoea hederacea
Procedure, shortened: as §1

surinam grass = experiment: Test B pre/postemergence surinam grass; assay type: in vivo, Brachiaria decumbens
Procedure, shortened: as §1

smallflower flatsedge = experiment: Test B flood test smallflower flatsedge; assay type: in vivo, Cyperus difformis
Procedure, shortened: (§2)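 Plants were grown to the 2-leaf stage before treatment with test chemical, then held in a greenhouse for twelve to sixteen days. Injury was visually rated against untreated controls on a 0–10 scale, where 0 is no effect and 10 is complete control.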

crabgrass = experiment: Test B pre/postemergence crabgrass; assay type: in vivo, Digitaria sanguinalis
Procedure, shortened: as §1

rice = experiment: Test B flood test rice; assay type: in vivo, Oryza sativa
Procedure, shortened: as §2

duck salad = experiment: Test B flood test duck salad; assay type: in vivo, Heteranthera limosa
Procedure, shortened: as §2

bamyardgrass = experiment: Test B flood test barnyardgrass; assay type: in vivo, Echinochloa crus-galli
Procedure, shortened: as §2

cocklebur = experiment: Test B pre/postemergence cocklebur; assay type: in vivo, Xanthium strumarium
Procedure, shortened: as §1

bedstraw = experiment: Test B pre/postemergence bedstraw; assay type: in vivo, Galium aparine
Procedure, shortened: as §1

purple nutsedge = experiment: Test B pre/postemergence purple nutsedge; assay type: in vivo, Cyperus rotundus
Procedure, shortened: as §1

velvetleaf = experiment: Test B pre/postemergence velvetleaf; assay type: in vivo, Abutilon theophrasti; conditions: for Plant response rating, Velvetleaf: Rate 250 g/ha
Procedure, shortened: as §1

corn = experiment: Test B pre/postemergence corn; assay type: in vivo, Zea mays
Procedure, shortened: as §1

[1] = Postemergence, Rate 125 g/ha, scale of 0 to 10 where 0 is no effect and 10 is complete control
[2] = Preemergence, Rate 62 g/ha, scale 0 to 10 (0 no effect, 10 complete control)
[3] = Preemergence, Rate 125 g/ha, scale 0 to 10 (0 no effect, 10 complete control)
[4] = Preemergence, Rate 250 g/ha, scale of 0 to 10 where 0 is no effect and 10 is complete control
[5] = Preemergence, Rate 500 g/ha, scale 0 to 10 (0 no effect, 10 complete control)
[6] = Rate 62 g/ha, Postemergence, scale of 0 to 10 where 0 is no effect and 10 is complete control
[7] = Rate 500 g/ha, Postemergence, scale 0 to 10, 0 no effect, 10 complete control
[8] = Postemergence, Rate 250 g/ha, scale 0 to 10, 0 no effect, 10 complete control
[9] = Preemergence, Rate 125 g/ha, 0 is no effect, 10 is complete control
[10] = Preemergence, scale of 0 to 10 where 0 is no effect and 10 is complete control
[11] = Postemergence, scale 0 to 10, 0 is no effect, 10 is complete control
[12] = Postemergence, Rate 62 g/ha, scale 0 to 10, 0 is no effect, 10 is complete control
[13] = Rate 125 g/ha, Postemergence, scale 0 to 10, 0 no effect, 10 complete control
[14] = Postemergence (flood test species), Rate 125 g/ha, scale of 0 to 10 where 0 is no effect and 10 is complete control
[15] = Rate 62 g/ha, Postemergence section, flood test species, scale of 0 to 10 where 0 is no effect and 10 is complete control
[16] = Rate 250 g/ha, Postemergence (flood test), scale 0 to 10, 0 is no effect, 10 is complete control
[17] = Rate 250 g/ha, headed Pre-emergence (flood test species), scale 0 to 10 (0 no effect, 10 complete control)
[18] = Rate 500 g/ha, headed Pre-emergence (flood test species), scale 0 to 10 (0 no effect, 10 complete control)
[19] = Rate 500 g/ha, listed under Postemergence (flood test species), scale 0 to 10, 0 no effect, 10 complete control
[20] = Rate 2000 g/ha, Pre-emergence (as headed), scale 0 to 10
[21] = Rate 1000 g/ha, Pre-emergence (as headed), scale 0 to 10
[22] = flood test, listed under Postemergence, Rate 250 g/ha, scale 0 to 10, 0 no effect, 10 complete control

CC(C)N(C(=O)n1oc(=O)n(C2CCCCC2)c1=O)c1ccc(Cl)cc1 [Compound 111]
Soybean plant response rating (soybean; [1]): 3
Soybean plant response rating (soybean; [2]): 0
Plant response rating, Soybean (soybean; [3]): 4
Plant response rating, Soybean (soybean; [4]): 4
Soybean plant response rating (soybean; [5]): 5
Soybean plant response rating (soybean; [6]): 3
Plant response rating, Soybean (soybean; Rate 250 g/ha, Postemergence, scale 0 to 10, 0 is no effect, 10 is complete control): 4
Soybean plant response rating (soybean; [7]): 5
Giant foxtail plant response rating (giant foxtail; [1]): 2
Giant foxtail plant response rating (giant foxtail; [8]): 5
Giant foxtail plant response rating (giant foxtail; [2]): 8
Plant response rating, Giant foxtail (giant foxtail; [3]): 9
Plant response rating, Giant foxtail (giant foxtail; [4]): 10
Giant foxtail plant response rating (giant foxtail; [5]): 10
Giant foxtail plant response rating (giant foxtail; [6]): 2
Giant foxtail plant response rating (giant foxtail; [7]): 9
Wheat plant response rating (wheat; [1]): 0
Wheat plant response rating (wheat; [2]): 0
Wheat plant response rating (0 to 10 scale) (wheat; [9]): 0
Plant response rating, Wheat (wheat; [10]): 0
Wheat plant response rating (wheat; [5]): 3
Wheat plant response rating (wheat; [6]): 0
Plant response rating, Wheat (wheat; [11]): 0
Wheat plant response rating (wheat; [7]): 0
Wild oats plant response rating (wild oat; [1]): 0
Wild oats plant response rating (wild oat; [2]): 0
Wild oats plant response rating (0 to 10 scale) (wild oat; [9]): 0
Plant response rating, Wild oats (wild oat; [10]): 2
Wild oats plant response rating (wild oat; [5]): 4
Wild oats plant response rating (wild oat; [6]): 0
Plant response rating, Wild oats (wild oat; [11]): 1
Wild oats plant response rating (wild oat; [7]): 2
Blackgrass plant response rating (blackgrass; [1]): 3
Blackgrass plant response rating (blackgrass; [8]): 5
Blackgrass plant response rating (blackgrass; [2]): 0
Plant response rating, Blackgrass (blackgrass; [3]): 0
Plant response rating, Blackgrass (blackgrass; [4]): 2
Blackgrass plant response rating (blackgrass; [5]): 5
Blackgrass plant response rating (blackgrass; [6]): 0
Blackgrass plant response rating (blackgrass; [7]): 7
Morningglory plant response rating (morningglory; [1]): 5
Morningglory plant response rating (morningglory; [8]): 5
Morningglory plant response rating (morningglory; [2]): 0
Plant response rating, Morningglory (morningglory; [3]): 0
Plant response rating, Morningglory (morningglory; [4]): 0
Morningglory plant response rating (morningglory; [5]): 0
Morningglory plant response rating (morningglory; [6]): 4
Morningglory plant response rating (morningglory; [7]): 8
B. signalgrass plant response rating (surinam grass; [12]): 0
B. signalgrass plant response rating (surinam grass; [8]): 0
B. signalgrass plant response rating (surinam grass; [2]): 0
Plant response rating, B. signalgrass (surinam grass; [3]): 1
Plant response rating, B. signalgrass (surinam grass; [4]): 1
B. signalgrass plant response rating (surinam grass; [5]): 4
B. signalgrass plant response rating (surinam grass; [13]): 0
B. signalgrass plant response rating (surinam grass; Rate 500 g/ha, Postemergence, scale of 0 to 10 where 0 is no effect and 10 is complete control): 0
S. Flatsedge plant response rating (smallflower flatsedge; [14]): 0
S. Flatsedge plant response rating (smallflower flatsedge; Pre-emergence, Rate 1000 g/ha, scale 0 to 10 (0 no effect, 10 complete control)): 0
S. Flatsedge plant response rating (smallflower flatsedge; [15]): 0
Plant response rating, S. Flatsedge (smallflower flatsedge; [16]): 0
S. Flatsedge plant response rating (smallflower flatsedge; [17]): 0
Plant response rating, S. Flatsedge (smallflower flatsedge; [18]): 0
S. Flatsedge plant response rating (smallflower flatsedge; [19]): 0
S. Flatsedge plant response rating (smallflower flatsedge; [20]): 0
Crabgrass plant response rating (crabgrass; [1]): 2
Crabgrass plant response rating (crabgrass; [8]): 3
Crabgrass plant response rating (crabgrass; [2]): 6
Plant response rating, Crabgrass (crabgrass; [3]): 7
Plant response rating, Crabgrass (crabgrass; [4]): 9
Crabgrass plant response rating (crabgrass; [5]): 9
Crabgrass plant response rating (crabgrass; [6]): 1
Crabgrass plant response rating (crabgrass; [7]): 9
Rice plant response rating (rice; [14]): 0
Rice plant response rating (rice; [15]): 0
Plant response rating, Rice (rice; [16]): 0
Rice plant response rating (rice; [17]): 0
Plant response rating, Rice (rice; [18]): 0
Rice plant response rating (rice; [19]): 0
Rice plant response rating (rice; [21]): 0
Rice plant response rating (rice; [20]): 0
Ducksalad plant response rating (duck salad; [14]): 0
Ducksalad plant response rating (duck salad; [15]): 0
Ducksalad plant response rating (duck salad; [17]): 0
Plant response rating, Ducksalad (duck salad; [18]): 0
Ducksalad plant response rating (duck salad; [19]): 0
Ducksalad plant response rating (duck salad; [21]): 0
Ducksalad plant response rating (duck salad; [20]): 0
Ducksalad plant response rating (duck salad; [22]): 0
Barnyardgrass plant response rating (bamyardgrass; [12]): 0
Barnyardgrass plant response rating (bamyardgrass; Rate 125 g/ha, Postemergence section (flood test species), scale 0 to 10, 0 no effect, 10 complete control): 0
Barnyardgrass plant response rating (bamyardgrass; [17]): 0
Plant response rating, Barnyardgrass (bamyardgrass; [18]): 0
Barnyardgrass plant response rating (bamyardgrass; [19]): 0
Barnyardgrass plant response rating (bamyardgrass; [21]): 0
Barnyardgrass plant response rating (bamyardgrass; Rate 2000 g/ha, Pre-emergence (as headed), scale 0 to 10, 0 no effect, 10 complete control): 9
Barnyardgrass plant response rating (bamyardgrass; [22]): 0
Cocklebur plant response rating (cocklebur; [1]): 0
Cocklebur plant response rating (cocklebur; [8]): 2
Cocklebur plant response rating (cocklebur; [2]): 0
Plant response rating, Cocklebur (cocklebur; [3]): 0
Plant response rating, Cocklebur (cocklebur; [4]): 0
Cocklebur plant response rating (cocklebur; [5]): 0
Cocklebur plant response rating (cocklebur; [6]): 0
Cocklebur plant response rating (cocklebur; [7]): 3
Bedstraw plant response rating (bedstraw; [12]): 5
Bedstraw plant response rating (bedstraw; [8]): 7
Bedstraw plant response rating (bedstraw; [2]): 0
Plant response rating, Bedstraw (bedstraw; [3]): 0
Plant response rating, Bedstraw (bedstraw; [4]): 0
Bedstraw plant response rating (bedstraw; [5]): 3
Bedstraw plant response rating (bedstraw; [13]): 5
Nutsedge plant response rating (purple nutsedge; [1]): 0
Nutsedge plant response rating (purple nutsedge; [8]): 0
Nutsedge plant response rating (purple nutsedge; [2]): 0
Plant response rating, Nutsedge (purple nutsedge; [3]): 0
Plant response rating, Nutsedge (purple nutsedge; [4]): 0
Nutsedge plant response rating (purple nutsedge; [5]): 0
Nutsedge plant response rating (purple nutsedge; [6]): 0
Nutsedge plant response rating (purple nutsedge; [7]): 0
Velvetleaf plant response rating (velvetleaf; [1]): 0
Velvetleaf plant response rating (velvetleaf; [2]): 0
Velvetleaf plant response rating (0 to 10 scale) (velvetleaf; [9]): 0
Plant response rating, Velvetleaf (velvetleaf; [10]): 3
Velvetleaf plant response rating (velvetleaf; [5]): 7
Velvetleaf plant response rating (velvetleaf; [6]): 0
Plant response rating, Velvetleaf (velvetleaf; [11]): 0
Velvetleaf plant response rating (velvetleaf; [7]): 2
Corn plant response rating (corn; [1]): 0
Corn plant response rating (corn; [8]): 0
Corn plant response rating (corn; [2]): 0
Plant response rating, Corn (corn; [3]): 1
Plant response rating, Corn (corn; [4]): 4
Corn plant response rating (corn; [5]): 4
Corn plant response rating (corn; [6]): 0
Corn plant response rating (corn; [7]): 0
